In ChEMBL document CHEMBL1201862, “PubChem BioAssay data set” (2004):
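All cell lines were grown in 96-well plates and treated with compound for 48 hours. At the GI50, growth is halved.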 Calls of active or inactive are those of the source. Cut-off read from the data, not from the text of the source: active = GI50 up to about 1.1 µM and inactive = higher.

Legend:
Assay in all cases: NCI-60 cell line screen, 48 h
HOP-62 = tested on: HOP-62
HCT-116 = tested on: HCT-116
DU-145 = tested on: DU-145
HCT-15 = tested on: HCT-15
CAKI-1 = tested on: CAKI-1
SN12C = tested on: SN12C
OVCAR-5 = tested on: OVCAR-5
TK-10 = tested on: TK-10
MDA-MB-231 = tested on: MDA-MB-231
MDA-MB-435 = tested on: MDA-MB-435
U-251 = tested on: U-251
UO-31 = tested on: UO-31
SW-620 = tested on: SW-620
NCI-H460 = tested on: NCI-H460
A549 = tested on: A549
NCI-H23 = tested on: NCI-H23
OVCAR-4 = tested on: OVCAR-4
SK-OV-3 = tested on: SK-OV-3
UACC-257 = tested on: UACC-257
OVCAR-3 = tested on: OVCAR-3

Structure (SMILES) | GI50 (HOP-62) | GI50 (HCT-116) | GI50 (DU-145) | GI50 (HCT-15) [µM] | GI50 (CAKI-1) | GI50 (SN12C) | GI50 (OVCAR-5) | GI50 (TK-10) | GI50 (MDA-MB-231) | GI50 (MDA-MB-435) | GI50 (U-251) | GI50 (UO-31) | GI50 (SW-620) | GI50 (NCI-H460) | GI50 (A549) | GI50 (NCI-H23) | GI50 (OVCAR-4) | GI50 (SK-OV-3) | GI50 (UACC-257) | GI50 (OVCAR-3)
CC(=O)NN/C=N/C(C#N)=C(\N)C#N | > 100 µM (inactive) | > 100 µM (inactive) | > 100 µM (inactive) | > 100 | > 100 µM (inactive) | > 100 µM (inactive) | > 100 µM (inactive) | > 100 µM (inactive) | > 100 µM (inactive) | > 100 µM (inactive) | > 100 µM (inactive) | > 100 µM (inactive) | > 100 µM (inactive) | > 100 µM (inactive) | > 100 µM (inactive) | > 100 µM (inactive) | > 100 µM (inactive) | > 100 µM (inactive) | > 100 µM (inactive) | > 100 µM (inactive)
COc1ccc2c3c1OC1c4[nH]c5ccccc5c4CC4(O)C(C2)N(C)CCC314 (stereo not given) | 40.3 µM (inactive) | 32.3 µM (inactive) | 57.9 µM (inactive) | 46.6 | 35.3 µM (inactive) | 56.6 µM (inactive) | 71.6 µM (inactive) | 22.9 µM (inactive) | 25.5 µM (inactive) | 18.1 µM (inactive) | 21 µM (inactive) | 13.6 µM (inactive) | 39.1 µM (inactive) | 22 µM (inactive) | 59.2 µM (inactive) | > 100 µM (inactive) | 44.3 µM (inactive) | > 100 µM (inactive) | 17.3 µM (inactive) | 42.3 µM (inactive)
COc1nc(N)c(NC2OC(CO)C(O)C2O)c(=O)[nH]1 (stereo not given) | > 100 µM (inactive) | > 100 µM (inactive) | > 100 µM (inactive) | > 100 | > 100 µM (inactive) | > 100 µM (inactive) | > 100 µM (inactive) | > 100 µM (inactive) | > 100 µM (inactive) | > 100 µM (inactive) | > 100 µM (inactive) | > 100 µM (inactive) | > 100 µM (inactive) | > 100 µM (inactive) | > 100 µM (inactive) | > 100 µM (inactive) | > 100 µM (inactive) | > 100 µM (inactive) | > 100 µM (inactive) | > 100 µM (inactive)
COC(=O)[C@H](Cc1ccccc1)NC(=O)c1ccc(CNC(=O)/C=C/c2ccc(-c3ccccc3)cc2)cc1 | 15.6 µM (inactive) | 4.95 µM (inactive) | > 100 µM (inactive) | > 100 | 65 µM (inactive) | > 100 µM (inactive) | 59.4 µM (inactive) | 68.1 µM (inactive) | 22.1 µM (inactive) | > 100 µM (inactive) | 5.97 µM (inactive) | > 100 µM (inactive) | > 100 µM (inactive) | > 100 µM (inactive) | > 100 µM (inactive) | 27.8 µM (inactive) | > 100 µM (inactive) | 57.8 µM (inactive) | > 100 µM (inactive) | > 100 µM (inactive)
